# Experiments:
# Format in all cases: ADME, organism-based
# Rattus norvegicus = test: Dose normalized AUC in Sprague-Dawley rat 2 mg/kg, po; parameters: dose 2 mg/kg, route oral; conditions: in vivo
# [1] = Clearance in Sprague-Dawley rat at 1 mg/kg, iv and 2 mg/kg, po; conditions: in vivo
# [2] = Half life in Sprague-Dawley rat at 1 mg/kg, iv and 2 mg/kg, po; conditions: in vivo
# [3] = Volume of distribution at steady state in Sprague-Dawley rat at 1 mg/kg, iv and 2 mg/kg, po; conditions: in vivo, read-out: Vdss
# [4] = Oral bioavailability in Sprague-Dawley rat 2 mg/kg; conditions: in vivo
SMILES,AUC/dose (Rattus norvegicus) [µM·kg·h/mg],clearance [1] [mL/min/kg],half-life [2] [min],Vd [3] [L/kg],bioavailability [4] [%]
O=C1OCCc2cc(CCN3CCN(C(=O)Cc4ccc(-n5cnnn5)cc4)CC3)ccc21,0.48,43,30,1.3,52
O=C1OCc2cc(CCN3CCN(C(=O)Cc4ccc(-n5cnnn5)cc4)CC3)ccc21,0.34,40,37.2,0.66,33
